Results from US5049673A, “Fluorescent indicator dyes for calcium working at long wavelengths” (The Regents of the University of California, priority 1987, dated 1991).
Where two headings read alike, the source gives them in different places.

Key:
[1] = Absorbance and fluorescence properties in the presence and absence of Ca2+; assay type: physicochemical
Method: FIG. 4. Excitation (A) and emission (B) spectra for fluo-3 at 22°±2° C. in buffers with free Ca^2+ values ranging from <1 nM to 58 microM. The titration was done starting with 3.5 ml of 100 mM KCl, 10 mM K-MOPS, 10 mM K2 H2 EGTA, 15 microM fluo-3, pH 7.03. The "O" Ca spectrum was recorded, then to reach n mM CaEGTA, (10-n) mM EGTA, n=1-10, aliquots of 3.5/(11-n) ml were iteratively discarded and replaced by equal volumes of 100 mM KCl, 10 mM K-MOPS, 10 mM K2 CaEGTA, 15 microM fluo-3, pH 7.0. After each iteration the pH (range 6.99 to 7.05) and spectra were recorded; each spectrum is labeled by the calculated free Ca^2+ in micromolar. The excitation and emission bandwidths were 1.9 nm and 4.6 nm respectively. All spectra have been normalized with respect to the peak of the 58 microM (n=10) curve. In A, emission was collected at 530 nm, and the excitation was corrected for lamp and monochromator characteristics using a rhodamine B quantum counter. In B, excitation was at 490 nm, and the emission spectrum is uncorrected for monochromator and detector sensitivity. The slightly low amplitude of the curve at 3.6 microM [Ca^2+ ] is probably due to a small error in resetting the excitation monochromator to 490 nm.
(§1) FIG. 6. The product of fluorescence quantum efficiency and extinction coefficient vs. free [Ca^2+ ] (note log axes for both) for quin-2, fura-2, indo-1, rhod-2, and fluo-3. All data are for room temperature, 0.1 M KCl, no added Mg^2+. […] The curve for fluo-3 used the data of Table I with extinction coefficients of 7.5×10^4 to 8.35×10^4 at 506 nm; the curve for rhod-2 assumed a Ca^2+ -independent extinction coefficient of 1×10^5 M^-1 cm^-1.
Examples of the synthetic routes than can be used to produce the new dyes of the present invention are outlined in FIGS. 2 and 3. Full descriptions of the reaction conditions are described below under the section entitled Compound Synthesis. Optical spectra were measured as described by Grynkiewicz, et al. (1985). (See ref. 9.) Quantum efficiencies of fluorescence were obtained (see ref. 10) by comparing the integral of the corrected emission spectrum of the test sample with that of a solution of rhodamine B in ethanol, quantum efficiency assumed to be 0.97 (see ref. 11), or fluorescein in 0.1 M NaOH, quantum efficiency 0.91 (see ref. 10). The concentration of the reference dye was adjusted to match the absorbance of the test sample at the wavelength of excitation.
The absorbance and fluorescence properties for the new indicators in the presence and absence of Ca^2+ are shown in Table I. The absorbance spectra were much as one would expect for rhodamine or fluorescein chromophores, though extinction coefficients (not shown) were often low in the dyes as initially isolated. Because fluo-3 appeared to be a very useful indicator compound, extra effort was expended in its purification. Eventually, quite respectable extinction coefficients were obtained, 7.9×10^4 and 8.3×10^4 M^-1 cm^-1 at 503 and 506 nm, respectively for free and Ca^2+ -bound fluo-3. Ca^2+ binding was expected to shift the absorbance maxima to longer wavelengths,since it would prevent the BAPTA amino nitrogen from donating electron density to the 9-position of the xanthene. Electron-withdrawal and donation to the central carbon of triphenylmethane dyes are known to shift absorbance peaks to longer and shorter wavelengths, respectively (see ref. 19). Indeed, Ca^2+ binding caused red shifts, but of very small magnitude, 1-3 nm, and with little change in peak height.
Fluo-3 has a visibly pinkish tinge because its chlorine atoms shift its spectra to wavelengths slightly longer than those of fluo-2, just as 2,7-dichlorofluorescein is bathochromically shifted from fluorescein. […] Thus the Ca^2+ complex of fluo-3 fluoresced 35- to 40-fold more brightly than the Ca^2+ -free dye (see FIG. 4). This degree of enhancement is the greatest yet reported for a fluorescent Ca^2+ indicator. […]

[2] = for Kd: read-out: Effective dissociation constant Kd for Ca^2+, pH 7.0-7.5, ionic strengths 0.1-0.15
Method: For measurement of Ca^2+ dissociation constants at pH 7.0-7.5, free [Ca^2+ ] levels were controlled by Ca^2+ /EGTA, Ca^2+ /HEEDTA and Ca^2+ /NTA buffers (see ref. 12) The apparent dissociation constant for the Ca^2+ EGTA complex was taken as 327 nM at pH 7.03 in 100 mM KCl, 20° C. The logarithms of the apparent dissociation constants for the Ca^2+ HEEDTA and Ca^2+ NTA complexes were calculated to be 1.70 - pH and 3.41 - pH, respectively, at room temperature in 0.1 M KCl. To test the pH dependence of the apparent Ca^2+ -dissociation constant of fluo-3 (see FIG. 4), it was necessary to vary pH from 5.6 to 8 while maintaining constant free Ca^2+. EGTA, HEEDTA, and NTA are too pH-dependent to cover this pH range, so dibromo-BAPTA (chelator 2c of ref 13) was used instead. […] To compensate for that small dependence, the pH titration was started from pH 5.6 with the appropriate amount of Ca^2+ in the buffer. Then, at each higher pH, the appropriate small addition of CaCl2 was made to compensate for the increase in the effective Ca^2+ affinity of the dibromo-BAPTA.

[3] = cited from earlier work; for Kd: room temperature, 0.1 M KCl, no added Mg^2+, read-out: Ca^2+ dissociation constant (Kd) used for FIG. 6
[4] = Photochemical stability, xenon arc illumination of air-saturated solutions; assay type: physicochemical
Description: Fluo-3 was briefly checked for photochemical stability. […] Since the biological usability of fluorescein is well established, the photochemical resistance of fluo-3 would seem to be adequate if not outstanding.

[5] = Product of fluorescence quantum efficiency and extinction coefficient vs free [Ca2+] (FIG. 6); assay type: physicochemical
Description: as §1
Whereas fura-2 and indo-1 were clearly much more intensely fluorescent than quin-2, enabling measurements with much less added dye and Ca^2+ buffering, comparison of the brightness of the new dyes with that of fura-2 and indo-1 is more complex of the different operating wavelengths. The simplest measure of the intrinsic brightness of a fluorophore is the product of its emission quantum efficiency and its extinction coefficient at the appropriate excitation wavelength (see FIG. 6). At the present time, extinction coefficients are known only for fluo-3, though one may estimate the values for the other indicators from purified model xanthene dyes (9-10×10^4 M^-1 cm^31 1). For fluo-3, the quantum efficiency×extinction coefficient ranges from 3×10^3 to 1.5×10^4 M^-1 cm^-1 for Ca^2+ values from 10^-7 M up to saturation, slightly less than the corresponding values for fura-2 excited at 340 nm, 5×10^3 to 1.6× 10^4 M^-1 cm^-1 (see FIG. 6). However, it is easier to generate higher excitation intensities at longer wavelengths, and autofluorescence will be lower, so the actual concentrations of dye needed to overcome dark current and autofluorescence may be fairly similar for the two families. On the other hand, the relatively small separation between excitation and emission peaks of the new dyes makes more stringent demands on monochromators and filters to exclude scattered light.
The Ca^2+ affinities of the new dyes are two to ten-fold weaker than those of their UV-excited predecessors. […]

[6] = Mg2+ dissociation constant in Mg2+/EGTA buffers
Method: Free [Mg2+] was controlled by Mg^2+ /EGTA buffers assuming an apparent dissociation constant for the Mg^2+ /EGTA complex (including its monoprotonated form) of 6 mM at pH 7.60, 0.12 M ionic strength, 20°, as calculated from the data of Martell & Smith (see ref. 12).

[7] = parent compounds, literature; read-out: Ca^2+ dissociation constant of parent compounds; cited from earlier work
[8] = cited from earlier work

Cc1ccc(N(CC(=O)O)CC(=O)O)c(OCCOc2cc(-c3c4ccc(=[N+](C)C)cc-4oc4cc(N(C)C)ccc34)ccc2N(CC(=O)O)CC(=O)O)c1 [rhod-2]
Fluorescence maxima, emission, with excess Ca [1]: 576 nm | Fluorescence maxima, excitation, with excess Ca [1]: 553 nm | Fluorescence quantum efficiency, excess Ca [1]: .102 | Fluorescence ratio, excess vs. zero Ca [1]: 3.4 | Fluorescence quantum efficiency, zero Ca [1]: .03 | Kd [2]: 1 µM

Cc1ccc(N(CC(=O)O)CC(=O)O)c(OCCOc2cc(-c3c4ccc(=O)cc-4oc4cc(O)ccc34)c(O)cc2N(CC(=O)O)CC(=O)O)c1 [fluo-1, 9-(6-hydroxy-4-bis(carboxymethyl)amino-3-(2-(2-bis(carboxymethyl)amino-5-methylphenoxy)ethoxy)phenyl)-6-hydroxy-3H-xanthen-3-one]
Fluorescence maxima, emission, with excess Ca [1]: 521 nm | Fluorescence maxima, excitation, with excess Ca [1]: 499 nm | Fluorescence quantum efficiency, excess Ca [1]: .014 | Fluorescence ratio, excess vs. zero Ca [1]: 3.3 | Fluorescence quantum efficiency, zero Ca [1]: .0042 | pH dependence of fluorescence: some pH dependence | Kd [2]: 0.7 µM | Lowering of Ca^2+ affinity by hydroxy group vs unsubstituted rhod-2 and fluo-2 ([2]; vs rhod-2 and fluo-2): more than two-fold

Cc1ccc(N(CC(=O)O)CC(=O)O)c(OCCOc2cc(-c3cc4ccc(C(=O)O)cc4[nH]3)ccc2N(CC(=O)O)CC(=O)O)c1 [indo-1]
Kd [3]: 0.25 µM

Cc1ccc(N(CC(=O)O)CC(=O)O)c(OCCOc2cc(-c3c4cc(Cl)c(=O)cc-4oc4cc(O)c(Cl)cc34)ccc2N(CC(=O)O)CC(=O)O)c1 [fluo-3, 9-(4-bis(carboxymethyl)amino-3-(2-(2-bis(carboxymethyl)amino-5-methylphenoxy)ethoxy)phenyl)-2,7-dichloro-6-hydroxy-3 H-xanthen-3-one]
Extinction coefficient, free dye ([1]; 503 nm, free): 79000 M⁻¹ cm⁻¹ | Extinction coefficient, Ca^2+-bound dye ([1]; 506 nm, Ca^2+-bound): 83000 M⁻¹ cm⁻¹ | Fluorescence enhancement, Ca^2+ complex vs Ca^2+-free dye ([1]; Ca^2+ complex vs free dye): 40 fold | Fluorescence maxima, emission, with excess Ca [1]: 526 nm | Fluorescence maxima, excitation, with excess Ca [1]: 506 nm | Fluorescence quantum efficiency, excess Ca [1]: .183 | Fluorescence ratio, excess vs. zero Ca [1]: 36-40 | Fluorescence quantum efficiency, zero Ca [1]: .0051 | Photobleaching rate, Ca^2+ complex ([4]; Ca^2+ complex): bleached about half as quickly | Photobleaching rate, Ca^2+-free ([4]; Ca^2+-free): bleached at about the same rate as ordinary fluorescein anion | Amino pKa, independent rough confirmation from intermediate [Ca^2+] curves (100 mm kcl, tris-mops): about 6.2 | pKa of amino nitrogen (100 mm kcl, tris-mops): about 6.2 | pKa of chromophore (absorbance spectrum or fluorescence amplitude of Ca^2+-complex) (100 mm kcl, tris-mops): 4.5-4.6 | Increase of fluorescence of Ca^2+-free dye, pH 8 to pH 5 (Ca^2+-free, maximal): ≤ 3 fold | Effectiveness of intermediate Ca^2+ at enhancing fluorescence at pH 6.1-6.2 vs pH ~8 (pH about 6.1-6.2 vs pH ~8): about half as effective | [Ca^2+] giving double the fluorescence at zero [Ca^2+] [5]: 11 nM | Conversion to Ca^2+ complex at 11 nM [Ca^2+] ([5]; 11 nM [Ca^2+]): 2.5% | Brightness of Ca^2+ complex relative to free dye (in words) ([5]; Ca^2+ complex vs free dye): forty-fold brighter | Effect of added chlorines on Ca^2+ affinity [2]: very little effect | Kd [2]: 0.45 µM | Effect of Mg^2+ binding on chelator fluorescence [6]: relatively little effect | Fluorescence enhancement by Mg^2+ binding ([6]; Mg^2+ binding): about 1.4 fold | Kd ([6]; read-out: Mg^2+ dissociation constant, 25°, 0.1-0.15 M ionic strength): 9000 µM

O=C(O)CN(CC(=O)O)c1ccccc1OCCOc1ccccc1N(CC(=O)O)CC(=O)O [BAPTA, 1,2-bis(2-amino-phenoxy)ethane N,N,N',N'-tetraacetic acid]
Kd [7]: 0.11 µM

CCN(CC)c1ccc2c(-c3ccccc3C(=O)O)c3ccc(=[N+](CC)CC)cc-3oc2c1 [rhodamine B]
Quantum efficiency of reference dye in ethanol ([8]; in ethanol): 0.97

O=c1ccc2c(-c3ccccc3)c3ccc(O)cc3oc-2c1 [9-phenylfluorone]
Quantum efficiency of model compound [8]: 0.21

Cc1ccc(N(CC(=O)O)CC(=O)O)c(OCCOc2cc(-c3c4ccc(=O)cc-4oc4cc(O)ccc34)ccc2N(CC(=O)O)CC(=O)O)c1 [fluo-2, 9-(4-bis(carboxymethyl)amino-3-(2-(2-bis(carboxymethyl)amino-5-methylphenoxy)ethoxy)phenyl)-6-hydroxy-3H-xanthen-3-one]
Fluorescence maxima, emission, with excess Ca [1]: 518 nm | Fluorescence maxima, excitation, with excess Ca [1]: 493 nm | Fluorescence quantum efficiency, excess Ca [1]: .125 | Fluorescence ratio, excess vs. zero Ca [1]: 31 | Fluorescence quantum efficiency, zero Ca [1]: .004 | Fluorescence quenching on titration from pH 7.7 to 4.1 (absence of Ca^2+): almost completely quenched | Ratio between the brightness of the deprotonated and the protonated species (absence of Ca^2+): 67 | Kd [2]: 0.37 µM

O=C1OC2(c3ccc(O)cc3Oc3cc(O)ccc32)c2ccccc21 [fluorescein]
Quantum efficiency of reference dye in 0.1 M NaOH ([8]; 0.1 M NaOH): 0.91

COc1cc(N(CC(=O)O)CC(=O)O)c2nc(COc3cc(C)ccc3N(CC(=O)O)CC(=O)O)ccc2c1 [quin-2, 2-[[2-[bis(carboxymethyl)amino]-5-methylphenoxy]-6-methoxy-8-bis(carboxymethyl)amino]quinolline]
Extinction coefficient at 339 nm ([3]; 339 nm, independent of Ca^2+): 4600 M⁻¹ cm⁻¹ | Kd [3]: 0.078 µM
